Laboratory results published in patent US20050038110A1, “Selective androgen receptor modulators and methods of use thereof” (priority 2000, published 2005).

Experiments:
[1] = tested on: androgen-responsive tissues (prostate, seminal vesicles and levator ani muscle) of castrated rats; test: Androgenic and anabolic activity in castrated rat model, 14 days of administration; conditions: for prostate and seminal vesicle weights / Levator Ani organ weight / Prostate organ weight / Seminal Vesicles organ weight: 14 days; for prostate and seminal vesicle weights: % of that observed in intact animals (FIG. 1); for Levator Ani organ weight / Prostate organ weight / Seminal Vesicles organ weight: mean ± S.D.; for prostate, seminal vesicle and levator ani muscle weights: 14 days (FIG. 3)
[2] = Pharmacokinetic studies (in vivo clearance); conditions: comparison among N-1 to N-4
[3] = compared with testosterone propionate (FIG. 3)

Compound: C[C@](O)(COc1ccc([N+](=O)[O-])cc1)C(=O)Nc1ccc([N+](=O)[O-])c(C(F)(F)F)c1 [Compound N-1]
- weight of the levator ani muscle ([1]; 1 mg/day for 14 days): 105%±13%

Compound: C[C@](O)(COc1ccc(Cl)cc1)C(=O)Nc1ccc([N+](=O)[O-])c(C(F)(F)F)c1 [Compound 2]
- levator ani muscle weight ([1]; 0.1-1.0 mg/day, 14 days (FIG. 1), versus intact animals): same level as that of intact animals
- prostate and seminal vesicle weights ([1]; 0.1-1.0 mg/day): less than 40%

Compound: C[C@](O)(COc1ccc(C#N)cc1)C(=O)Nc1ccc([N+](=O)[O-])c(C(F)(F)F)c1 [Compound N-2]
- weight of the levator ani muscle ([1]; 1 mg/day for 14 days): 119%±16%

Compound: C[C@](O)(COc1ccc(F)cc1)C(=O)Nc1ccc(C#N)c(C(F)(F)F)c1 [Compound 5]
- Levator Ani organ weight ([1]; 0.10 mg/day): 54.9 ± 5.77 % of intact
- Prostate organ weight ([1]; 0.10 mg/day): 6.4 ± 0.82 % of intact
- Seminal Vesicles organ weight ([1]; 0.10 mg/day): 8.8 ± 1.18 % of intact
- Levator Ani organ weight ([1]; 0.50 mg/day): 55.0 ± 9.23 % of intact
- Prostate organ weight ([1]; 0.50 mg/day): 6.2 ± 0.56 % of intact
- Seminal Vesicles organ weight ([1]; 0.50 mg/day): 9.3 ± 1.57 % of intact
- Levator Ani organ weight ([1]; 0.75 mg/day): 68.9 ± 8.46 % of intact
- Prostate organ weight ([1]; 0.75 mg/day): 7.6 ± 0.74 % of intact
- Seminal Vesicles organ weight ([1]; 0.75 mg/day): 9.8 ± 3.65 % of intact
- Levator Ani organ weight ([1]; 1.00 mg/day): 75.2±9.51 % of intact
- Prostate organ weight ([1]; 1.00 mg/day): 8.7±1.39 % of intact
- Seminal Vesicles organ weight ([1]; 1.00 mg/day): 10.7±0.91 % of intact

Compound: C[C@](O)(COc1ccc([N+](=O)[O-])cc1)C(=O)Nc1ccc(C#N)c(C(F)(F)F)c1 [Compound N-3]
- weight of the levator ani muscle ([1]; 1 mg/day for 14 days): 130%±5%

Compound: C[C@](O)(COc1ccc(Br)cc1)C(=O)Nc1ccc([N+](=O)[O-])c(C(F)(F)F)c1 [Compound 3]
- prostate and seminal vesicle weights ([1]; 0.1-1.0 mg/day): less than 20%

Compound: C[C@](O)(COc1ccc(F)cc1)C(=O)Nc1ccc([N+](=O)[O-])c(C(F)(F)F)c1 [Compound 1]
- prostate and seminal vesicle weights ([1]; 0.1-1.0 mg/day): less than 20%

Compound: C[C@](O)(COc1ccc(I)cc1)C(=O)Nc1ccc([N+](=O)[O-])c(C(F)(F)F)c1 [Compound 4]
- prostate and seminal vesicle weights ([1]; 0.1-1.0 mg/day): less than 20%

Compound: C[C@](O)(COc1ccc(Cl)cc1)C(=O)Nc1ccc(C#N)c(C(F)(F)F)c1 [Compound 6]
- prostate, seminal vesicle and levator ani muscle weights ([1]; 0.1-1.0 mg/day): dose-dependent increases
- potency and intrinsic activity in increasing the weight of levator ani muscle [1, 3]: greater potency and intrinsic activity
- potency and intrinsic activity in increasing the weights of prostate and seminal vesicle [1, 3]: lower potency and intrinsic activity
- levator ani muscle weight ([1]; dose as low as 0.3 mg/day, versus intact animals (FIG. 3)): same level as that of intact animals

Compound: CCC(=O)O[C@H]1CC[C@H]2[C@@H]3CCC4=CC(=O)CC[C@]4(C)[C@H]3CC[C@]12C [testosterone propionate, reference compound]
- prostate, seminal vesicle and levator ani muscle weights ([1]; 0.1-1.0 mg/day): dose-dependent manner

Compound: C[C@](O)(COc1ccc(C#N)cc1)C(=O)Nc1ccc(C#N)c(C(F)(F)F)c1 [Compound N-4]
- in vivo clearance [2]: lowest in vivo clearance
- weight of the levator ani muscle ([1]; 1 mg/day for 14 days): 142%±17%
- in vivo pharmacologic activity ([1]; 1 mg/day for 14 days, comparison among N-1 to N-4): greatest activity
